Data on two compounds can be found in patent publication US20030166516A1, “Methods of treating, preventing, or inhibiting inflammation with exumolide compounds” (priority 2001, published 2003).

Where a SMILES comes first, the peptide text is derived from it. [ ]: non-standard residue; d: D form. Hica(2S) = CC(C)C[C@H](O)C(=O)O; NMeL = CN[C@@H](CC(C)C)C(=O)O

Assay [1] relates to edema caused by phorbol 12-myristate 13-acetate (PMA) in mouse ear. Description: Inhibition of mouse ear edema (PMA mouse ear model). It is filed as in vivo, mice. The note with it: for inflammation caused by PMA (result in words): irritant phorbol 12-myristate 13-acetate (PMA). The procedure:
The efficacy of Exumolide compounds as an anti-inflammatory agent was established by the following assay. Exumolide A was topically applied in acetone to the inside pinnae of the ears of mice in a solution comprising an edema-causing irritant, phorbol 12-myristate 13-acetate (PMA). Specifically, 2 μg/ear of PMA alone or in combination with 50 μg/ear of Exumolide A was applied to the left ears (5 mice per treatment group) and acetone was applied to all right ears. After 3 hours, 20 minutes incubation, the mice were sacrificed, the ears removed and bores taken and weighed. Edema was measured by subtracting the weight of the right ear (acetone control) from the weight of the left ear (treated). Results were recorded as % decrease (inhibition) or % increase (potentiation) in edema relative to the PMA control group edema.

The test system of the next assay is cell proliferation. Description: conventional [3H]-thymidine incorporation assays. It is filed as cell-based. An excerpt:
Thus, the present invention also provides a method of treating, preventing, or inhibiting inflammation or an inflammatory disease or disorder in a subject without inhibiting cell proliferation in the subject.
Background: Uptake of a labelled nucleoside into DNA is a usual measure of proliferation.

The conditions of assay [2]: reported on isolation, Fenical et al. (1998) Tetrahed. Letts. 39:2463-2466; cited from earlier work.

Take `CC(C)C[C@@H]1OC(=O)[C@@H]2CCCN2C(=O)[C@H](Cc2ccccc2)NC(=O)[C@H](Cc2ccccc2)NC(=O)[C@H](CC(C)C)N(C)C(=O)[C@@H]2CCCN2C1=O` [Exumolide A] (cyclo(FFP[Hica(2S)]P[NMeL])): the “Edema (mg ± SEM)” value in assay [1] (50 ug/ear topical in acetone with 2 μg/ear PMA, left minus right ear bore weight after 3 hours, 20 minutes) turned out to be 4.3 ± 1.0 mg. Further, the “inflammation caused by PMA (result in words)” value in assay [1] is “prevent or inhibit inflammation”. In the assay on cell proliferation, the “inhibition of cell proliferation” value is given as “do not inhibit cell proliferation”. In addition, the antibiotic activity entry in assay [2] was “exhibit antibiotic activity”.
As for `CC(C)C[C@@H]1NC(=O)[C@@H]2CCCN2C(=O)[C@H](CC(C)C)OC(=O)[C@@H]2CCCN2C(=O)[C@H](Cc2ccccc2)NC(=O)[C@H](Cc2ccccc2)NC1=O` [Exumolide B] (cyclo(FFP[Hica(2S)]PL)), the “inflammation caused by PMA (result in words)” value in assay [1] is given as “prevent or inhibit inflammation”. The “inhibition of cell proliferation” value in the assay with cell proliferation is listed as “do not inhibit cell proliferation”. In addition, in assay [2], the antibiotic activity entry is listed as “exhibit antibiotic activity”.
